Tests used:
[1] = test system: MDA-MB-231 tumor; assay: Kinetics of CAR-T cell expansion and tumor uptake in MDA-MB-231 tumor bearing mice; type: in vivo, NSG mice
Protocol: When the tumor sizes averaged at ˜350±60 mm^3 on day 2, up to […] of EC17 at 500 nmol/kg were given on days 2, 9, 16, 23, and 30. For ex-vivo analysis, 3 animals were taken before the next EC17 dose on days 9, 16, 23, and 30 for a total of 4 collections. For comparison, the same EC17 dose was given to 3 CAR-T mice that had ˜4.4× larger tumor sizes on day 2 (˜1555±79 mm3). For each collection, fresh blood and tumor samples (if available) were analyzed for the presence of human CD3e+ EGFRt+ CAR-T cells by flow cytometry.
For CAR-T cell analysis in the circulation, plasma was removed from a predetermined volume of whole blood collected into tubes containing ethylenediaminetetraacetic acid anticoagulant. […] A minimum of 20,000 propidium iodide negative live cell events were collected on the Gallios flow cytometer and analyzed with the Kaluza software, version 2.1 (Beckman Coulter, Brea, Calif.). CAR-positive T cells were identified in mouse blood as human CD3e+ EGFRt+ events and absolute numbers per volume of blood were calculated using equal numbers of CountBright™ beads (Invitrogen, Carlsbad, Calif.) added to each sample. The number of tumor-infiltrating CD3ε+ EGFRt+ CAR-T cells was expressed as % total viable tumor cells analyzed.

[2] = test system: HOS-FRα tumor; assay: CRS toxicity and sodium fluorescein rescue in HOS-FRα tumor-bearing mice; type: in vivo; conditions: ~2.5 million CD8 and ~33 million CD4 E2 CAR-T cells; days 4 and 11, after EC17 500 and 100 nmol/kg on days 3 and 10
Protocol: All animal care and use were performed according to NIH guidelines and in compliance with protocols approved by the Purdue University Animal Use and Care Committee. Female 4 to 5-week-old NOD/SCID gamma (NSG™) mice (stock number: 005557) were purchased from The Jackson Laboratory (Bar Harbor, Me.). Unless specifically indicated, all animals were maintained on a FA-deficient diet (TestDiet, St. Louis, Mo.) upon arrival and throughout the study. To establish subcutaneous xenografts, MDA-MB-231 and HOS-FRα were implanted in the right flank region at 2.5×10^6 and 1×10^6 cells per animal, respectively. For intravenous xenografts, THP1-FRb cells were inoculated at 5×10^6 cells per animal. Subcutaneous tumors were measured 2-3 times per week with a caliper and calculated using the ellipsoidal formula […]. […] All animal doses (CAR-T cells, EC17, sodium fluorescein) were given intravenously.
Depending on the CAR-T cell dose and how EC17 is administered, tumor-bearing mice receiving FITC-specific CAR-T cells can experience severe CRS and varying degrees of body weight loss. […] On the days immediately following each EC17 dose, animals were scored and rescue agents such as sodium fluorescein, folic acid and leucovorin were used to mitigate CRS toxicity. […]

[3] = target: T1, FRα (KB) (Homo sapiens, UniProt P15328); assay: 3H-EC17 cell-based radioligand binding assay, KB cells; conditions: 2 h at 37° C.
T1 construct: endogenous in cells; host or cells: KB cells (human cervical carcinoma with HeLa markers)
T1 sequence (P15328 25-234): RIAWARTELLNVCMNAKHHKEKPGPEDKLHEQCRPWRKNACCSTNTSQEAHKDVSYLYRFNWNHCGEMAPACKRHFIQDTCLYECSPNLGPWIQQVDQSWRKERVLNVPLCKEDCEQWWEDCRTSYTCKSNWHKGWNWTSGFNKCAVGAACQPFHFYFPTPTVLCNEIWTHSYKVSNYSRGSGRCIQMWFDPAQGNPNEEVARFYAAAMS
Protocol: The bispecific affinities of EC17 CAM were assessed using ^3H-EC17 in cell-based radioligand binding assays. For binding to FR+ targets, KB and CHO-β cells were pre-seeded overnight in 24-well tissue culture plates and incubated with 0.1, 0.5, 1, 5, 10, 20, and 40 nM of ^3H-EC17 in FFRPMI for 2 h at 37° C. Afterwards, the cells were rinsed with phosphate-buffered saline (PBS, pH 7.4) and lysed with 1% sodium dodecylsulfate. The whole cell lysates were quantitated for the level of radioactivity and cellular protein content by standard Pierce BCA protein assay. The number of ^3H-EC17 molecules bound per cell was calculated to determine the dissociation constants (Kd) for FRα (KB) and FRβ (CHO-b) respectively (FIG. 56A, FIG. 56B).

[4] = test system: E2-CAR-T cells; assay: 3H-EC17 uptake by E2-CAR-T cells; type: binding, human; conditions: read-out: Kd of 3H-EC17 (estimated); unsorted E2-CAR-T cells (~24% EGFRt+, ~95:5 CD8/CD4), 2 hour at room temperature
Excerpt: (calculated from the numbers of molecules bound per cell).
Principle Components of CAM Controlled CAR T Cell Therapy. The basic components of the CAR-T cell therapy involve FITC as the pseudo tumor antigen, the high affinity EC17 CAM (a CAM is equivalent to a bridge or the “compound” in this application), and a rationally designed anti-FITC CAR and CAR-modified T cells. The EC17 has already been tested in the clinic for immunotherapy and optical imaging purposes. To directly quantify its bispecific binding affinities, ^3H-EC17 was synthesized and radioligand binding assays were carried out on KB and CHO-β cell lines representing FRα+ and FRβ+ target cells, respectively, and on unsorted EGFRt CAR-T cells representing the effector cells.

With NC1=NC2N=CC(CNc3ccc(C(=O)N[C@@H](CCC(=O)NCCNC(=S)Nc4ccc(-c5c6ccc(=O)cc-6oc6cc(O)ccc56)c(C(=O)O)c4)C(=O)O)cc3)=NC2C(=O)N1 (some centres unmarked) [EC17, FA-(g)-ethylenediamine-FITC] the body weight loss ([1]; ~4.8 million E2-CAR-T cells, after EC17 administration, especially third dose) was “mild body weight loss”, the tumor response ([1]; ~4.8 million EGFRt-sorted E2-CAR-T cells, weekly EC17 500 nmol/kg) was “started to respond after the second EC17 dose” and the CRS grade [2] was 1-2. The Kd [3] was 0.0017 µM and the Kd [4] was about 0.13 µM.

Source: US11311576B2, “Methods of use for CAR T cells” (Seattle Children's Hospital, priority 2018, dated 2022)
